Several values for one entry are separate records, joined by “and”; a condition that tells them apart may be missing. Equal entries are not always repeated.
Test system: subjects with type 2 diabetes and nephropathy
Assay: Example 1: Phase 2b randomized, double-blind, placebo-controlled 12-week clinical study
Conditions: for Weight, LS Mean Change from Baseline (SE): Week 12; for UACR Change from Baseline LS Mean (SE) / UACR Geometric Mean Change (Percent): baseline to final on-treatment measurement
Procedure: The primary efficacy endpoint was the change from baseline to Week 12 in log-transformed UACR with the primary analysis conducted using mixed-effects, maximum likelihood, repeated measures (MMRM) with fixed effects for treatment, country, visit, and treatment-by-visit interaction, with baseline measurement and baseline-by-visit interaction as covariates.
All safety analyses were performed on treatment-emergent adverse events only. Treatment-emergent adverse events were defined as those that first occurred or worsened on or after the date of first dose of study drug through 30 days after the last dose of study drug.

CCCCN(CCCC)C(=O)CN1C[C@H](c2ccc3c(c2)OCO3)[C@@H](C(=O)O)[C@@H]1c1ccc(OC)cc1 [Atrasentan, (2R,3R,4S)-4-(1,3-benzodioxol-5-yl)-1-[2-(dibutylamino)-2-oxoethyl]-2-(4-methoxyphenyl)pyrrolidine-3-carboxylic acid]
mean systolic blood pressure, difference from baseline (0.75 mg/day): statistically significant at Week 4 | peripheral edema leading to discontinuation (0.75 mg/day): 3.4% | subjects discontinued because of an adverse event (0.75 mg/day): 5 subjects | subjects discontinued prematurely from the study (0.75 mg/day): 13.6% | subjects who discontinued study drug because of adverse events (0.75 mg/day): 8.5% | subjects with adverse event infection (0.75 mg/day): 3.4% | systolic blood pressure, mean change from baseline to last on-treatment visit (0.75 mg/day): −2.44 mmHg | weight, mean change from baseline to last on-treatment visit (0.75 mg/day): -1.20 kg | UACR Between-group Comparison Difference (90% CI) (0.75 mg/day vs placebo): −0.47 (−0.71, −0.22) | Weight, LS Mean Change from Baseline (SE) (0.75 mg/day): −0.8 (0.69) kg | UACR Change from Baseline LS Mean (SE) (0.75 mg/day): −0.47 (0.12) log mg/g creatinine | UACR Geometric Mean Change (Percent) (0.75 mg/day): −37.77% | Any adverse event (1.25 mg, N = 64): 47 (73.4) N (%) of Subjects | Any adverse event leading to discontinuation of study drug (1.25 mg, N = 64): 7 (10.9) N (%) of Subjects | Death (1.25 mg, N = 64): 0 N (%) of Subjects | Fatal adverse event (1.25 mg, N = 64): 0 N (%) of Subjects | Possibly or probably drug-related adverse event (1.25 mg, N = 64): 27 (42.2) N (%) of Subjects | Serious adverse event (1.25 mg, N = 64): 4 (6.3) N (%) of Subjects | Severe adverse event (1.25 mg, N = 64): 1 (1.6) N (%) of Subjects | Cholesterol, Difference (95% CI) from placebo (1.25 mg/day): −17.2 (−31.60, −2.88) mg/dL | Cholesterol, Final On-Treatment Visit Mean (SD) (1.25 mg/day): 147.6 (33.53) mg/dL | Cholesterol, LS Mean Change from Baseline (SE) (1.25 mg/day): −16.2 (3.75) mg/dL | HDL-C, Difference (95% CI) from placebo (1.25 mg/day): 2.2 (−1.61, 6.08) mg/dL | HDL-C, Final On-Treatment Visit Mean (SD) (1.25 mg/day): 43.4 (10.51) mg/dL | HDL-C, LS Mean Change from Baseline (SE) (1.25 mg/day): −0.2 (1.00) mg/dL | Had ≧30% Reduction in UACR and No Edema (no moderate or severe adverse event of edema) (1.25 mg/day): 28 (45.9) Number (%) of Subjects | Hemoglobin, Difference (95% CI) from placebo (1.25 mg/day): −0.98 (−1.462, −0.505) g/dL | Hemoglobin, Final On-Treatment Visit Mean (SD) (1.25 mg/day): 11.79 (1.702) g/dL | Hemoglobin, LS Mean Change from Baseline (SE) (1.25 mg/day): −1.02 (0.120) g/dL | LDL-C, Difference (95% CI) from placebo (1.25 mg/day): −13.1 (−23.98, −2.29) mg/dL | LDL-C, Final On-Treatment Visit Mean (SD) (1.25 mg/day): 69.5 (22.54) mg/dL | LDL-C, LS Mean Change from Baseline (SE) (1.25 mg/day): −11.0 (2.83) mg/dL | Percentage of Subjects with ≧30% Reduction in Log-Transformed UACR from Baseline to Final Measurement (1.25 mg/day): 52.5% | Percentage of Subjects with ≧40% Reduction in Log-Transformed UACR from Baseline to Final Measurement (1.25 mg/day): 36.1% | Percentage of Subjects with ≧50% Reduction in Log-Transformed UACR from Baseline to Final Measurement (1.25 mg/day): 29.5% | Triglycerides, Difference (95% CI) from placebo (1.25 mg/day): −64.6 (−123.32, −5.97) mg/dL | Triglycerides, Final On-Treatment Visit Mean (SD) (1.25 mg/day): 167.4 (84.98) mg/dL | Triglycerides, LS Mean Change from Baseline (SE) (1.25 mg/day): −31.4 (15.31) mg/dL | Weight, Final On-Treatment Visit Mean (SD) (1.25 mg/day): 92.6 (18.74) kg | diastolic blood pressure, mean change from baseline to last on-treatment visit (1.25 mg/day): −2.74 mmHg | fatigue leading to discontinuation (1.25 mg/day): 3.1% | geometric mean reduction in UACR, baseline to final on-treatment measurement (1.25 mg/day): 40.7% | incidence of anemia (1.25 mg/day): 4.7% | incidence of peripheral edema (1.25 mg/day): 42.2% | mean diastolic blood pressure, difference from baseline (1.25 mg/day): statistically significant from Weeks 1 through 10 | mean increases in weight vs placebo (repeated-measures analysis) (1.25 mg/day): statistically significantly different from the mean changes with placebo from Week 1 through Week 8 | mean systolic blood pressure, difference from baseline (1.25 mg/day): statistically significant at Weeks 1, 8, and 10 | peripheral edema leading to discontinuation (1.25 mg/day): 4.7% | subjects discontinued because of an adverse event (1.25 mg/day): 7 subjects | subjects discontinued prematurely from the study (1.25 mg/day): 15.6% | subjects who discontinued study drug because of adverse events (1.25 mg/day): 10.9% | subjects with adverse event infection (1.25 mg/day): 0% | systolic blood pressure, mean change from baseline to last on-treatment visit (1.25 mg/day): −2.98 mmHg | triglycerides, difference from placebo (1.25 mg/day): statistically significant | weight, mean change from baseline to last on-treatment visit (1.25 mg/day): 2.02 kg | UACR Between-group Comparison Difference (90% CI) (1.25 mg/day vs placebo): −0.51 (−0.75, −0.28) | mean ambulatory systolic blood pressure, difference from placebo (1.25 mg/day, Week 6): statistically significant difference | Weight, LS Mean Change from Baseline (SE) (1.25 mg/day): 0.6 kg and 0.6 (0.66) kg | UACR Change from Baseline LS Mean (SE) (1.25 mg/day): −0.52 (0.11) log mg/g creatinine | UACR Geometric Mean Change (Percent) (1.25 mg/day): −40.67% | mean HDL-C change (all treatment groups, change not clinically meaningful): decreased slightly | hemoglobin relative to placebo (both atrasentan groups, at Week 2 and throughout the study): Statistically significantly mean decreases
